The values below are quoted from earlier work in patent US11648211B2, “Nanoencapsulated combination drug formulations” (priority 2019, dated 2023).

For series [1], the system named is SARS-2-S-driven entry into Caco-2 cells.
The subject of series [2] is SARS-2-S-driven entry into Vero-TMPRSS2 cells.
For series [3] the following is noted: in vivo, ip, 5 mg/kg.
For series [4] the following is noted: human, in vivo.
For series [5] the following is noted: in vivo.
The test system of series [6] is advanced breast cancer. The conditions noted are these: in vivo.

Structures can show the parent of a compound that is named as a salt. Where two headings read alike, the source gives them in different places.

As for `CN(C)C(=O)COC(=O)Cc1ccc(OC(=O)c2ccc(NC(=N)N)cc2)cc1` [Camostat mesylate], the SARS-2-S-driven entry entry in series [1] and in series [2] was “partially blocked” each time.

Regarding `CCc1cnn2c(NCc3ccc[n+]([O-])c3)cc(N3CCCC[C@H]3CCO)nc12` [DCB, Dinaciclib], the half-life in series [3] is 0.25 h. In series [4], the half-life was 3.3 h, the patients with neutropenia was 43% and the patients with thrombocytopenia is 3%. For the same compound, the “patients with grade 3-4 toxicities” value in series [5] was 60%. Moreover, in series [6], the “grade 3-4 febrile neutropenia” value is 11%, the “grade 3-4 increased transaminase levels” value is listed as 11%, the “grade 3-4 leukopenia” value was 21% and the “grade 3-4 neutropenia” value was 47%.

Turning to `Cn1ncnc1[C@H]1c2n[nH]c(=O)c3cc(F)cc(c23)N[C@@H]1c1ccc(F)cc1` [TLZ, Talazoparib], under “oral”, the “patients with anemia, low RBC count” value is recorded as 52%; the “patients with leukopenia, low WBC count” value is 17%; the “patients with thrombocytopenia, low PLT count” value was 27%. Moreover, for the setting “patients treated with TLZ”, the patients with neutropenia is 35%.

Broadly, the half-life is the time in which the quantity being followed falls by half.
